Data from DBAASP.
Converted amounts (≈) assume the structure as drawn. Blank lines part the entries; values can stand above or below the molecule they belong to.

Key:
Experiment in all cases: ≥ marks a high value that may be exact or a test limit, other limits are often not marked, values filed in µg/mL are converted to µM
[1] = test system: Escherichia coli IFO 3972
[2] = test system: Staphylococcus aureus FDA 209P
[3] = test system: Candida albicans ATCC 2002
[4] = test system: Candida albicans ATCC 90028
[5] = test system: Enterococcus faecalis ATCC 29212
[6] = test system: Escherichia coli 117
[7] = test system: Escherichia coli 37
[8] = test system: Klebsiella pneumoniae ATCC 700603
[9] = test system: Pseudomonas aeruginosa ATCC 27853
[10] = test system: Pseudomonas aeruginosa CMCCB 1010
[11] = test system: Pseudomonas aeruginosa
[12] = test system: Staphylococcus aureus 10
[13] = test system: Staphylococcus aureus 37
[14] = test system: Staphylococcus aureus ATCC 25923
[15] = test system: Bacillus subtilis
[16] = test system: Candida albicans
[17] = test system: Cryptococcus neoformans
[18] = test system: Escherichia coli
[19] = test system: Pseudomonas putida
[20] = test system: Saccharomyces cerevisiae
[21] = test system: Salmonella typhimurium
[22] = test system: Serratia sp.
[23] = test system: Staphylococcus aureus
[24] = test system: Streptococcus mutans
[25] = test system: Botrytis cinerea DSM Z877
[26] = test system: Fusarium oxysporum DSM Z62306
[27] = test system: Histophilus somni
[28] = test system: Mannheimia haemolytica
[29] = test system: Pasteurella multocida
[30] = test system: Acinetobacter baumannii ATCC 19606
[31] = test system: Enterobacter cloacae ATCC 49141
[32] = test system: Enterococcus faecalis ATCC 19433
[33] = test system: Escherichia coli ATCC 25922
[34] = test system: Escherichia coli D21
[35] = test system: Staphylococcus aureus II ATCC 6538P
[36] = test system: Acinetobacter baumannii KCTC 2508
[37] = test system: Acinetobacter baumannii
[38] = test system: Candida albicans ATCC 37092
[39] = test system: Staphylococcus aureus ATCC 29213
[40] = test system: Glaesserella parasuis ATCC 19417
[41] = test system: Glaesserella parasuis

- MIC [1]: ≥ 500 µM
- MIC [2]: ≥ 500 µM
SMILES: CC(C)C[C@H](NC(=O)[C@H](Cc1c[nH]c2ccccc12)NC(=O)[C@@H](NC(=O)[C@H](Cc1c[nH]c2ccccc12)NC(=O)[C@H](Cc1cnc[nH]1)NC(=O)[C@@H](N)Cc1c[nH]c2ccccc12)[C@@H](C)O)C(=O)O [WHWTWL]

- MIC [3]: ≥ 55.9 µM
- MIC [4]: 14 µM (≈ 20 µg/mL)
- MIC [5]: 3.49 µM (≈ 5 µg/mL)
- MIC [6]: 28 µM (≈ 40 µg/mL)
- MIC [7]: ≥ 55.9 µM
- MIC [8]: 55.9 µM (≈ 80 µg/mL)
- MIC [9]: 55.9 µM (≈ 80 µg/mL)
- MIC [10]: ≥ 55.9 µM
- MIC [11]: 6.99 µM (≈ 10 µg/mL)
- MIC [12]: 28 µM (≈ 40 µg/mL)
- MIC [13]: 6.99 µM (≈ 10 µg/mL)
- MIC [14]: 6.99 µM (≈ 10 µg/mL)
SMILES: CC[C@H](C)[C@H](N)C(=O)N[C@@H](CC(N)=O)C(=O)N[C@@H](CC(C)C)C(=O)N[C@@H](CCCCN)C(=O)N[C@@H](C)C(=O)N[C@H](C(=O)N[C@@H](C)C(=O)N[C@@H](C)C(=O)N[C@@H](CC(C)C)C(=O)N[C@@H](C)C(=O)N[C@@H](CCCN=C(N)N)C(=O)N[C@@H](CC(N)=O)C(=O)N[C@@H](Cc1ccc(O)cc1)C(=O)O)[C@@H](C)CC [INLKAIAALARNY]

- MIC [15]: 11.5 µM (≈ 20 µg/mL)
- MIC [16]: 57.4 µM (≈ 100 µg/mL)
- MIC [17]: 23 µM (≈ 40 µg/mL)
- MIC [18]: 28.7 µM (≈ 50 µg/mL)
- MIC [19]: ≥ 57.4 µM
- MIC [20]: 5.74 µM (≈ 10 µg/mL)
- MIC [21]: 17.2 µM (≈ 30 µg/mL)
- MIC [22]: 28.7 µM (≈ 50 µg/mL)
- MIC [23]: 28.7 µM (≈ 50 µg/mL)
- MIC [24]: 17.2 µM (≈ 30 µg/mL)
SMILES: CC[C@H](C)[C@H](NC(=O)[C@H](CO)NC(=O)[C@H](CCCCN)NC(=O)[C@H](Cc1ccccc1)NC(=O)[C@H](CCCCN)NC(=O)[C@H](CCCCN)NC(=O)[C@H](CC(C)C)NC(=O)[C@@H]1CCCN1C(=O)[C@@H](NC(=O)[C@H](CCCCN)NC(=O)[C@@H](NC(=O)[C@@H](NC(=O)[C@H](C)N)C(C)C)C(C)C)C(C)C)C(=O)N[C@@H](CCCN=C(N)N)C(=O)N[C@@H](CCC(=O)O)C(=O)O [AVVKVPLKKFKSIRE]

- MIC [25]: ≥ 120 µM
- MIC [26]: ≥ 100 µM
SMILES: CSCC[C@H](NC(=O)[C@@H](NC(=O)[C@@H](NC(=O)[C@H](CCCCN)NC(=O)[C@H](C)N)C(C)C)[C@@H](C)O)C(=O)N[C@H](C(=O)N[C@@H](CS)C(=O)N[C@@H](CO)C(=O)N[C@@H](C)C(=O)N[C@@H](CO)C(=O)O)[C@@H](C)O [AKVTMTCSAS]

- MIC [27]: 1.14 µM (≈ 4.69 µg/mL)
- MIC [29]: 0.558 µM (≈ 2.3 µg/mL)
SMILES: CC[C@H](C)[C@@H]1NC(=O)CNC(=O)[C@H](CCCCN)NC(=O)[C@H](CC(N)=O)NC(=O)[C@H](CCCN=C(N)N)NC(=O)[C@H](C(C)C)NC(=O)[C@@H](NC(=O)[C@H](CO)NC(=O)[C@@H](NC(=O)[C@@H]2CCCN2C(=O)[C@@H](N)CC(N)=O)C(C)C)CSSC[C@@H]2NC(=O)[C@H](CCCCN)NC(=O)[C@H](C(C)C)NC(=O)[C@H](C)NC(=O)[C@H](CCCN=C(N)N)NC(=O)CNC(=O)[C@H](C(C)C)NC(=O)[C@@H]3CSSC[C@H](NC1=O)C(=O)N[C@@H](C(C)C)C(=O)N1CCC[C@H]1C(=O)N[C@@H]([C@@H](C)CC)C(=O)N[C@@H](CCCN=C(N)N)C(=O)N[C@@H](CSSC[C@@H](C(=O)N[C@@H](CCCN=C(N)N)C(=O)N[C@@H](CCCCN)C(=O)N[C@@H](CCCCN)C(=O)O)NC2=O)C(=O)N1CCC[C@H]1C(=O)NCC(=O)N[C@@H](CC(N)=O)C(=O)N[C@@H](CCSC)C(=O)N[C@@H](CCCCN)C(=O)N[C@@H](CCC(N)=O)C(=O)N[C@@H]([C@@H](C)CC)C(=O)NCC(=O)N[C@@H]([C@@H](C)O)C(=O)N3 [NPVSCVRNKGICVPIRCPGNMKQIGTCVGRAVKCCRKK]
- MIC [28]: 0.753 µM (≈ 3.1 µg/mL)

- MIC [30]: > 100 µM
- MIC [31]: ≥ 100 µM
- MIC [32]: ≥ 100 µM
- MIC [33]: > 100 µM
- MIC [34]: ≥ 100 µM
- MIC [9]: 100 µM (≈ 182 µg/mL)
- MIC [35]: ≥ 100 µM
SMILES: CC(C)C[C@H](NC(=O)[C@H](Cc1cnc[nH]1)NC(=O)[C@H](Cc1cnc[nH]1)NC(=O)[C@H](CC(C)C)NC(=O)[C@H](CC(C)C)NC(=O)[C@H](Cc1cnc[nH]1)NC(=O)[C@H](Cc1cnc[nH]1)NC(=O)[C@H](CC(C)C)NC(=O)[C@H](CC(C)C)NC(=O)[C@H](Cc1cnc[nH]1)NC(=O)[C@H](Cc1cnc[nH]1)NC(=O)[C@H](CC(C)C)NC(=O)[C@H](C)NC(=O)[C@H](CC(=O)O)NC(=O)[C@@H](N)CC(=O)O)C(=O)O [DDALHHLLHHLLHHL]

- MIC [36]: 6.25 µM (≈ 14.4 µg/mL)
- MIC [37]: 6.25 µM (≈ 14.4 µg/mL)
SMILES: CC[C@H](C)[C@H](NC(=O)CNC(=O)[C@H](CC(C)C)NC(=O)[C@H](CCCN=C(N)N)NC(=O)[C@H](CCCCN)NC(=O)[C@H](Cc1ccccc1)NC(=O)[C@@H](NC(=O)[C@H](CCCCN)NC(=O)[C@H](CCCCN)NC(=O)[C@H](C)N)C(C)C)C(=O)NCC(=O)N[C@@H](CCCCN)C(=O)N[C@@H](Cc1ccccc1)C(=O)N[C@@H](CC(C)C)C(=O)N[C@@H](Cc1cnc[nH]1)C(=O)N[C@@H](CO)C(=O)N[C@@H](C)C(=O)N[C@@H](CCCCN)C(=O)N[C@@H](CCCCN)C(=O)N[C@@H](Cc1ccccc1)C(N)=O [AKKVFKRLGIGKFLHSAKKF]

- MIC [38]: ≥ 500 µM
- MIC [33]: > 500 µM
- MIC [39]: > 500 µM
SMILES: CC(C)C[C@H](NC(=O)[C@@H]1CCCN1C(=O)[C@H](CCCN=C(N)N)NC(=O)[C@@H]1CCCN1)C(=O)N1CCC[C@H]1C(=O)N[C@@H](Cc1ccccc1)C(=O)N1CCC[C@H]1C(=O)N[C@@H](CCCN=C(N)N)C(=O)N1CCC[C@H]1C(=O)NCC(=O)O [PRPLPFPRPG]

- MIC [40]: 18.5 µM (≈ 20 µg/mL)
- MIC [41]: 13.1 µM (≈ 14.1 µg/mL)
SMILES: C[C@H](NC(=O)[C@H](Cc1ccccc1)NC(=O)[C@H](CS)NC(=O)[C@H](Cc1c[nH]c2ccccc12)NC(=O)[C@H](CCCN=C(N)N)NC(=O)[C@@H](N)CC(N)=O)C(=O)NCC(=O)N[C@@H](CC(=O)O)C(=O)N[C@@H](CC(=O)O)C(=O)O [NRWCFAGDD]
